Experimental data: ChEMBL document CHEMBL1201862, “PubChem BioAssay data set” (2004)
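In this assay, cells in 96-well plates receive the compound at five concentrations for 48 hours. Endpoints are linearly interpolated between the surrounding concentrations. Abbreviation: GI50, concentration required for 50% inhibition of growth.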 Calls of active or inactive are those of the source. No stated cut-off is given here; in the data, active = GI50 up to about 1.1 µM and inactive = higher.

Experiments:
Assay in all cases: inhibition of tumour cell growth, NCI panel, 48 h
A549 = system: A549
BT-549 = system: BT-549
DU-145 = system: DU-145
Hs-578T = system: Hs-578T
K562 = system: K562
LOX IMVI = system: LOX IMVI
M14 = system: M14
MDA-MB-435 = system: MDA-MB-435
NCI-H460 = system: NCI-H460
PC-3 = system: PC-3
SF-268 = system: SF-268
SF-539 = system: SF-539
SK-MEL-28 = system: SK-MEL-28
SK-MEL-2 = system: SK-MEL-2
SK-MEL-5 = system: SK-MEL-5
SNB-75 = system: SNB-75
HL-60 = system: HL-60
RXF 393 = system: RXF 393
CAKI-1 = system: CAKI-1

Measured: GI50

CCCCn1c(C)c(C)c2c1NN=C(C#N)S2(=O)=O
inactive: A549 > 100 µM | BT-549 > 100 µM | DU-145 > 100 µM | Hs-578T > 100 µM | K562 > 100 µM | LOX IMVI > 100 µM | M14 > 100 µM | MDA-MB-435 > 100 µM | NCI-H460 > 100 µM | PC-3 > 100 µM | SF-268 > 100 µM | SF-539 > 100 µM | SK-MEL-28 > 100 µM | SK-MEL-2 > 100 µM | SK-MEL-5 > 100 µM | SNB-75 > 100 µM

CCOC(=O)CCC(NC(=O)C(CCC(=O)OCC)NC(=O)C(Cc1ccc([N+](=O)[O-])cc1)NC(C)=O)C(=O)NNC(=O)OC(C)(C)C (stereo unspecified)
inactive: A549 > 100 µM | BT-549 > 100 µM | HL-60 > 100 µM | Hs-578T > 100 µM | K562 > 100 µM | M14 > 100 µM | NCI-H460 > 100 µM | PC-3 > 100 µM | RXF 393 14 µM | SK-MEL-28 > 100 µM | SK-MEL-2 > 100 µM | SK-MEL-5 > 100 µM | SNB-75 > 100 µM

COc1cc(C(=O)N(C(=O)N2CCCCC2)c2ccccc2)cc(OC)c1OC
inactive: A549 > 100 µM | BT-549 > 100 µM | CAKI-1 > 100 µM | DU-145 > 100 µM | K562 > 100 µM | LOX IMVI > 100 µM | M14 > 100 µM | MDA-MB-435 > 100 µM | NCI-H460 > 100 µM | PC-3 > 100 µM | SF-539 > 100 µM | SK-MEL-28 > 100 µM | SK-MEL-2 > 100 µM | SK-MEL-5 > 100 µM | SNB-75 > 100 µM

c1ccc(N/N=N/c2ccc(-c3nc4ccccc4o3)cc2)nc1
inactive: A549 46.7 µM | BT-549 28.8 µM | DU-145 43.6 µM | HL-60 13.7 µM | Hs-578T 77.8 µM | K562 42.9 µM | LOX IMVI 37.2 µM | M14 60.7 µM | MDA-MB-435 31 µM | NCI-H460 30.5 µM | PC-3 30.1 µM | SF-268 83.6 µM | SF-539 55.3 µM | SK-MEL-28 61.5 µM | SK-MEL-2 41.1 µM | SK-MEL-5 16.2 µM | SNB-75 20.4 µM

Cc1ccc(-c2c(C#N)c(-c3ccc(C)cc3)n(NS(=O)(=O)c3ccccc3)c(=O)c2C#N)cc1
inactive: A549 41.2 µM | BT-549 25.4 µM | CAKI-1 83.8 µM | Hs-578T > 100 µM | K562 49.2 µM | LOX IMVI 35 µM | M14 40.6 µM | MDA-MB-435 61.1 µM | NCI-H460 40.9 µM | PC-3 28.9 µM | RXF 393 35.3 µM | SF-268 > 100 µM | SF-539 21.2 µM | SK-MEL-28 49.2 µM | SK-MEL-2 57.4 µM | SK-MEL-5 16 µM | SNB-75 > 100 µM

CNc1ccc(Cl)cc1S(=O)(=O)c1ccccc1[N+](=O)[O-]
inactive: A549 > 100 µM | BT-549 > 100 µM | DU-145 > 100 µM | HL-60 > 100 µM | Hs-578T 31.1 µM | K562 > 100 µM | LOX IMVI > 100 µM | M14 > 100 µM | NCI-H460 > 100 µM | PC-3 > 100 µM | RXF 393 > 100 µM | SF-268 > 100 µM | SF-539 > 100 µM | SK-MEL-28 > 100 µM | SK-MEL-2 > 100 µM | SK-MEL-5 46.7 µM | SNB-75 > 100 µM

O=C(CC(=O)n1nc(-c2ccccc2)c(/N=N/c2ccccc2C(=O)O)c1-c1ccccc1)Nc1ccc(Cl)cc1
inactive: A549 34.1 µM | BT-549 24.7 µM | HL-60 10.2 µM | Hs-578T 35.6 µM | K562 25.6 µM | M14 55.8 µM | NCI-H460 19.2 µM | PC-3 27.5 µM | RXF 393 7.66 µM | SK-MEL-28 52.8 µM | SK-MEL-2 29.5 µM | SK-MEL-5 42 µM | SNB-75 27.9 µM

N#Cc1c(-c2ccc(Cl)cc2)c(C#N)c(=O)n(NS(=O)(=O)c2ccccc2)c1S
inactive: A549 29.4 µM | BT-549 25.9 µM | CAKI-1 26.2 µM | DU-145 52.8 µM | HL-60 16.6 µM | K562 27.9 µM | LOX IMVI 18 µM | M14 26.7 µM | MDA-MB-435 23.5 µM | NCI-H460 18.8 µM | PC-3 19.1 µM | RXF 393 35.8 µM | SF-539 18.3 µM | SK-MEL-2 47.3 µM | SK-MEL-5 14.2 µM | SNB-75 28.7 µM

COc1ccc(C2N(c3ccc(C)c(N=C=O)c3)C(=O)N3C(c4ccc(OC)cc4)N(c4ccc(C)c(N=C=O)c4)C(=O)N23)cc1 (stereo unspecified)
inactive: A549 > 100 µM | BT-549 > 100 µM | CAKI-1 > 100 µM | DU-145 > 100 µM | HL-60 > 100 µM | K562 > 100 µM | LOX IMVI > 100 µM | M14 29.1 µM | MDA-MB-435 > 100 µM | NCI-H460 > 100 µM | PC-3 > 100 µM | RXF 393 > 100 µM | SF-268 > 100 µM | SF-539 > 100 µM | SK-MEL-28 > 100 µM | SK-MEL-2 49.7 µM | SK-MEL-5 > 100 µM | SNB-75 37.7 µM

NC1CC(N)c2c(Br)sc(Br)c21 (stereo unspecified)
inactive: A549 97.7 µM | BT-549 > 100 µM | CAKI-1 > 100 µM | DU-145 > 100 µM | Hs-578T > 100 µM | K562 > 100 µM | LOX IMVI 58.1 µM | M14 > 100 µM | MDA-MB-435 > 100 µM | NCI-H460 > 100 µM | SF-268 67.3 µM | SF-539 > 100 µM | SK-MEL-28 > 100 µM | SK-MEL-2 > 100 µM | SK-MEL-5 > 100 µM

O=c1[nH]c2ccc(Cl)cc2c2oc(-c3ccccc3)nc12
inactive: A549 22.1 µM | BT-549 > 100 µM | CAKI-1 21.6 µM | Hs-578T 15.7 µM | K562 72.6 µM | LOX IMVI 32.5 µM | M14 88.5 µM | MDA-MB-435 51.6 µM | NCI-H460 20 µM | PC-3 29.9 µM | RXF 393 14.1 µM | SF-268 36 µM | SF-539 29.3 µM | SK-MEL-2 17.8 µM | SK-MEL-5 25.9 µM

O=C1Nc2ccccc2C(=O)/C1=C/NC(=S)NCc1ccccc1
inactive: A549 > 100 µM | BT-549 > 100 µM | CAKI-1 > 100 µM | DU-145 > 100 µM | HL-60 > 100 µM | LOX IMVI > 100 µM | M14 > 100 µM | MDA-MB-435 98.2 µM | PC-3 > 100 µM | SF-539 > 100 µM | SK-MEL-28 > 100 µM | SK-MEL-2 > 100 µM | SK-MEL-5 > 100 µM | SNB-75 > 100 µM
